Experimental data taken from article PMC12384096, “TabsPBP2, a Pheromone-Binding Protein Highly Expressed in Male Antennae of Tuta absoluta, Binds Sex Pheromones and Tomato Volatiles” (Biomolecules, 2025).

Assays:
TabsPBP2 = assay: Competitive fluorescence binding assay with 1-NPN probe; parameters: species or system Tuta absoluta; details: competitive displacement of 1-NPN (2 µM), 2 μM TabsPBP2, pH 7.4; for Ki: calculated from IC50
Protocol: Fluorescence binding assays were performed on a Cary Eclipse Fluorescence Spectrophotometer (Agilent Technologies, Palo Alto, CA, USA) to quantify TabsPBP2’s binding affinity for sex pheromones and tomato volatiles. Using n-phenyl-1-naphthylamine (1-NPN) as a fluorescent probe (1 mM in methanol), 2 μM TabsPBP2 (in 50 mM Tris-HCl, pH 7.4) were titrated with 1-NPN (2–16 µM). Fluorescence was excited at 337 nm with emission scanned from 350 and 500 nm. Ligand binding affinities were measured via competitive assays with 1-NPN (2 µM). Titration ranges: 0.5–4 μM (sex pheromones) and 2–50 μM (tomato volatiles). The binding constant (K1-NPN) for 1-NPN was calculated, followed by calculation of the dissociation constant (Ki) from IC50 values using the equation: Ki = [IC50]/(1 + [1-NPN]/K1-NPN), where [1-NPN] represents the free concentration of 1-NPN.

adult T. absoluta = test system: adult T. absoluta; parameters: method as in doi:10.1127/entomologia/2024/2399; details: cited from earlier work
T. absoluta females = test system: T. absoluta females; parameters: method as in PMID 29404818; details: cited from earlier work

Row | Structure (SMILES) | IC50 (TabsPBP2) [µM] | Ki (TabsPBP2) [µM] | behavioral effect on adult T. absoluta (adult T. absoluta) | EAG responses in females (T. absoluta females)
1 | COC(=O)c1ccccc1O [methyl salicylate, Methyl salicylate] | 18.6 ± 1.38 | 13 ± 1.23 | repel | elicit EAG responses
2 | CC1=CC=C(C(C)C)CC1 [α-terpinene, α-Terpinene] | 14.6 ± 5.16 | 10.2 ± 3.6 |  | 
3 | CC1=CC2C(CC1)C2(C)C (stereo not shown) [2-carene, 2-Carene] | 7.47 ± 1.2 | 5.5 ± 0.92 |  | 
4 | C=CC(=C)CCC=C(C)C [myrcene, Myrcene] | 6.22 ± 0.85 | 4.68 ± 0.66 | repel | elicit EAG responses
5 | C=C1CCC2(C(C)C)CC12 (stereo not shown) [sabinene, Sabinene] | 13.6 ± 1.85 | 11.4 ± 1.88 |  | 
6 | CC1=CCC2CC1C2(C)C (stereo not drawn) [α-pinene, α-Pinene] | 9.98 ± 0.98 | 7.48 ± 0.57 |  | 
7 | CC/C=C\CCO [cis-3-hexen-l-ol, cis-3-Hexen-l-ol] | 19.5 ± 2.39 | 13.7 ± 1.9 |  | elicit EAG responses
